Results: patent US20090012136A1, “UNIT DOSE FORMULATIONS AND METHODS OF TREATING AND PREVENTING THROMBOSIS WITH THROMBOXANE RECEPTOR ANTAGONISTS” (PORTOLA PHARMACEUTICALS, INC., priority 2007, published 2009)

Assays:
platelets [1] = assay: Collagen-induced platelet aggregation by light transmittance aggregometry (LTA) in PRP (Example 1); format: cell-based, human
Experimental: (§1) Blood from healthy individuals (n=6-7) was obtained by venipuncture and anticoagulated with FXa inhibitor. Platelet rich plasma (PRP) was obtained, and LTA was performed by standard procedures, initiating platelet aggregation with U-46619 (10 μM) or collagen (4 μg/ml).
LTA was performed on PRP samples using collagen (4 micrograms/ml) to induce platelet aggregation.

platelets [2] = assay: Arachidonic acid-induced platelet aggregation LTA (Example 2); format: cell-based, human; settings: all three tested doses (1 μM, 350 nM, 100 nM); healthy volunteers and AERD patients; FIGS. 7A and 7B
Experimental: (§2) Light transmittance aggregometry (LTA) assays were performed by standard procedures, initiating platelet aggregation with collagen or arachidonic acid.
(§3) Assays were performed pre- (+/−ifetroban, spiked in vitro) and post-aspirin desensitization.

platelets [3] = assay: Real time perfusion chamber assay, blood perfused through collagen-coated capillaries (Example 1); format: cell-based, human; settings: non-aspirinated blood, ifetroban added in vitro; aspirin 325 mg per day for 2 weeks; FIG. 3
platelets [4] = assay: U-46619-induced platelet aggregation by light transmittance aggregometry (LTA) in PRP; format: cell-based, human
Experimental: as §1

platelets [5] = assay: Real time perfusion chamber assay (RTTP), healthy volunteers and AERD patients (Example 2); format: cell-based, human; settings: 100 nM or 350 nM spiked in vitro
Experimental: Real time perfusion chamber assays (RTTP) were performed using blood anticoagulated with Fxa inhibitor (10 uM 034) and perfused through collagen-coated capillaries (1100/sec). Thrombus formation on the collagen surface was monitored in real time using fluorescence microscopy to detect fluorescently labeled (R6G) platelets.
as §3

platelets [6] = assay: Collagen-induced platelet aggregation LTA, healthy volunteers and AERD patients (Example 2); format: cell-based, human; settings: for anti-aggregatory activity in collagen-induced platelet aggregation assay: FIG. 5
Experimental: as §2, §3

[7] = hundreds of randomized clinical trials; BMJ 324:71-86 (2002); cited from earlier work

SMILES	concentration in collagen-induced assay relative to that predicted by U-46619-induced assay (platelets [1]; 350 nM v. 30 nM)	concentration for maximum inhibition of collagen-induced platelet aggregation (platelets [1]; collagen 4 μg/ml, non-aspirinated PRP, ifetroban added in vitro, FIG. 2)	amount required to inhibit collagen-induced versus U-46619-induced platelet aggregation (platelets [1]; collagen versus U-46619)	effect on arachidonic acid-induced platelet aggregation (platelets [2])	concentration providing equivalent or superior inhibitory activity on thrombosis as aspirin (platelets [3]) [nM]	concentration that fully inhibited U-46619-induced platelet aggregation (platelets [4]; U-46619 10 μM, PRP anticoagulated with FXa inhibitor, ifetroban added in vitro, FIG. 2) [nM]	concentration predicted by U-46619-induced platelet aggregation assays (platelets [4]; U-46619-induced platelet aggregation) [nM]	antithrombotic activity in perfusion chamber assay (platelets [5]; AERD patients, FIG. 4B)	antithrombotic activity in perfusion chamber assay (platelets [5]; healthy volunteers, FIG. 4A)	anti-aggregatory activity in collagen-induced platelet aggregation assay (platelets [6]; AERD patients)	concentration reproducing aspirin effects on collagen-induced platelet aggregation and thrombosis (platelets [6]; AERD patients, FIG. 5B) [nM]	concentration showing statistically significant inhibition of collagen-induced platelet aggregation (platelets [6]; AERD patients, FIG. 5B) [nM]	inhibition of platelet aggregation compared with aspirin (platelets [6]; healthy volunteers, 100 nM ifetroban)	anti-aggregatory activity in collagen-induced platelet aggregation assay (platelets [6]; healthy volunteers)	concentration showing statistically significant inhibition of collagen-induced platelet aggregation (platelets [6]; normal volunteers (P=0.0281), FIG. 5A) [nM]	concentration reproducing aspirin effects on collagen-induced platelet aggregation and thrombosis (platelets [6]; normal volunteers, FIG. 5A) [nM]	reduction of the extent of collagen-induced platelet aggregation v. baseline (mean+sem) (platelets [1]; twenty healthy individuals, aspirin 325 mg/day for two weeks, collagen 4 micrograms/ml, PRP)	reduction in adverse events [7]
CCCCCNC(=O)c1coc([C@H]2[C@@H](Cc3ccccc3CCC(=O)[O-])[C@@H]3CC[C@H]2O3)n1.[Na+] [ifetroban, [1S-(1α,2α,3α,4α)]-2-[[3-[4-[(pentylamino)carbonyl]-2-oxazolyl]-7-oxabicyclo[2.2.1]hept-2-yl]methyl]benzenepropanoic acid]	approximately 10 times	greater than or equal to 350 nM	approximately 10 fold	fully blocked	≥ 300	> 30	30	significant antithrombotic activity	significant antithrombotic activity	significant anti-aggregatory activity	> 100	> 100	significantly lower inhibition of platelet aggregation than aspirin	significant anti-aggregatory activity	> 100	> 100	–	–
CC(=O)Oc1ccccc1C(=O)O [aspirin]	–	–	–	–	–	–	–	–	–	–	–	–	–	–	–	–	39+/−6.0%	20-25%
